According to patent publication US20240166630A1, “INDOLE DERIVATIVES AS SEROTONERGIC AGENTS USEFUL FOR THE TREATMENT OF DISORDERS RELATED THERETO” (Mindset Pharma Inc., priority 2021, published 2024):
Values joined by “and” are separate entries in the source; they are usually repeats but may differ in a detail not shown here. Identical values can stand only once. Like-named read-outs stand apart in the source and are kept apart here.

Key:
[1] = In vivo pharmacokinetics in male Sprague Dawley rats; parameters: species or system rat; conditions: 0.992 mg/kg s.c.; for AUC(0-t): read-out: AUC0-tlast
Text: Example 13 (I-B-1): In Vivo Assessment of the Pharmacokinetics in Mice and Rats
5. PK Analysis • i. Analysis software: Phoenix® WinNonlin® 8.2 (Pharsight, Certara, Mountainview, CA) • ii. Analysis methods: non-compartmental analysis, linear up/log down trapezoidal rule • iii. PK parameters: C0, t1/2, AUC0-tlast. AUC0-∞, CL, Vss, MRT, tmax(po), Cmax(po), F, as appropriate

[2] = molecular target: T1, human 5-HT2A (h5-HT2A) receptor (Homo sapiens, UniProt P28223); experiment: FLIPR assay, human 5-HT2A receptor under agonist mode; type: cell-based
T1 construct: expressed in transfected cells; kept under G418 and hygromycin B selection
Protocol: I. Assessment of the Activated Effect of Compounds of Formula I-B Targeting on Human 5-HT2A (h5-HT2A) Receptor Under Agonist Mode:
1. The cells were cultured in cell culture medium (DMEM containing 10% FBS, 1× penicillin-streptomycin 300 μg/ml G418 and 100 μg/ml hygromycin B) at 37° C., 5% (v/v) CO2.
2. One day before the assays, the cells were detached using TrypLE™ Express and count cells using cell counter.
3. 20000 cells/well were seeded in 30 μl/well culture medium to a 384-well cell plate and incubated the cells overnight at 37° C., 5% (v/v) CO2.
4. On the assay day, 2×dye solution was prepared following the manual of the FLIPR® Calcium 6 Assay Kit: i. The dye was diluted with assay buffer (20 mM HEPES in 1×HBSS, PH7.4); ii. probenecid was added to the final concentration of 5 mM; iii. Vortexed vigorously for 1-2 minutes.
5. Medium was removed from cell plate by flicking the cell plate on towel papers.
7. The cell plate was placed on plate shaker, the plate agitated at 600 rpm for 2 minutes. The plate was incubated at 37° C. for 2 hours followed by additional 15-minute incubation at 25° C.
8. 3×compound was prepared in assay buffer: a. Reference compounds were diluted to required concentration with DMSO. The compounds were added to a 384-well compound plate; b. Serial dilutions were performed; c. 10 mM test compounds were added to the compound plate, 3-fold serial dilutions were performed. […] 20 μl/well assay buffer was added to the compound plate; f.
9. The cell plate, compound plate and tips were placed into FLIPR, 10 μl of 3× compound was transferred to the cell plate per well with FLIPR.
i. The normalized fluorescence reading (RFU) was calculated as shown follow, while Fmax and Fmin stand for maximum and minimum of calcium signal during defined time window: RFU=Fmax−Fmin
ii. The percentage activation was calculated by using following equation: […]
iii. EC50 was calculated by fitting % activation against log of compound concentrations with Hill equation using Xlfit.

human 5-HT2A = human 5-HT2A (Homo sapiens, UniProt P28223); experiment: Radioligand binding assay on human 5-HT2A receptor ([3H]-ketanserin)
Protocol: i. The assay buffer was prepared following the table below;
iii. Prepared (v/v) DMSO as follows: a. […] The plates were sealed and incubated at 4° C. for 3 hrs;
iv. Preparation of assay plates: a.
vi. The plates were sealed and incubated at 27° C. for 90 min.

[3] = Liver microsomes stability with NADPH, mouse
Protocol: The objective of this study was to estimate in vitro metabolic stability of representative compounds of the application in pooled human and male mouse liver microsomes. The concentrations of parent compounds in reaction systems were evaluated by LC-MS/MS for estimating the stability in pooled human and male mouse liver microsomes. The in vitro intrinsic clearances of test compounds were determined as well.
A master solution in the “Incubation Plate” containing phosphate buffer, ultra-pure H2O, MgCl2 solution and liver microsomes was made according to Table 3. The mixture was pre-warmed at 37° C. water bath for 5 minutes.
40 μL of 10 mM NADPH solution was added to each well. The final concentration of NADPH was 1 mM. The negative control samples were prepared by replacing NADPH with 40 μL of ultra-pure H2O. Samples were prepared in duplicate. Negative controls were prepared in singlet.
The reaction was started with the addition of 4 μL of 200 μM test compounds or control compounds to each master solution to get the final concentration of 2 μM. This study was performed in duplicate.
Aliquots of 50 μL were taken from the reaction solution at 0, 15, 30, 45 and 60 minutes. The reaction solutions were stopped by the addition of 4 volumes of cold methanol with IS (100 nM alprazolam, 200 nM imipramine, 200 nM labetalol and 2 μM ketoprofen). Samples were centrifuged at 3,220 g for 40 minutes. Aliquot of 90 μL of the supernatant was mixed with 90 μL of ultra-pure H2O and then was used for LC-MS/MS analysis.
LC/MS analysis was performed for all samples from this study using a Shimadzu liquid chromatograph separation system equipped with degasser DGU-20A5R; solvent delivery unit LC-30AD; system controller SIL-30AC; column oven CTO-30A; CTC Analytics HTC PAL System; Mass spectrometric analysis was performed using an Triple Quad™ 5500 instrument.
All calculations were carried out using Microsoft Excel. Peak area ratios of test compound to internal standard (listed in the below table) were determined from extracted ion chromatograms.
All calculations were carried out using Microsoft Excel. Peak areas were determined from extracted ion chromatograms. The slope value, k, was determined by linear regression of the natural logarithm of the remaining percentage of the parent drug vs. incubation time curve.
The in vitro half-life (in vitro t1/2) was determined from the slope value:
Conversion of the in vitro t1/2 (min) into the in vitro intrinsic clearance (in vitro CLint, in μL/min/mg proteins) was done using the following equation (mean of duplicate determinations): […]

[4] = Liver microsomes stability with NADPH, rat

Sequence of human 5-HT2A (P28223 whole entry): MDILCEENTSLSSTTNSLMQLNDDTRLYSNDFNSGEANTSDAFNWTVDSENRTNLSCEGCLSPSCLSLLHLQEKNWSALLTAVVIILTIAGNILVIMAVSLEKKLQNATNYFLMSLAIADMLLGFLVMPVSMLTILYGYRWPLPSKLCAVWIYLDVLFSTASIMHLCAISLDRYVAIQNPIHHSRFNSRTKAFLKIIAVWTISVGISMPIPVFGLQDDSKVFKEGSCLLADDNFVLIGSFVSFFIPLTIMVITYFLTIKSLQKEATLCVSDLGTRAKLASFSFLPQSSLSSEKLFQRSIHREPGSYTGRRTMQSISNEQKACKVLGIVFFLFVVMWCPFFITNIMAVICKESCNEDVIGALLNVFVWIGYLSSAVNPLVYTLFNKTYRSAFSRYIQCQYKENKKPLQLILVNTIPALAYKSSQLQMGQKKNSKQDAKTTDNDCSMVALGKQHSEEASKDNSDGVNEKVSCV
T1 sequence (P28223 whole entry): as above

Structure (SMILES): [2H]C([2H])(c1c[nH]c2ccccc12)[C@H]1CCCN1C([2H])([2H])[2H] [I-B-1, (R)-3-((1-(methyl-d3)pyrrolidin-2-yl)methyl-d2)-1H-indole]
- F ([1]; Mean ± SD): 133 ± 10.1%
- AUC0-tlast ([1]; individual animals): 137 ng·h/mL and 133 ng·h/mL
- AUC(0-inf) ([1]; individual animals): 154 ng·h/mL and 133 ng·h/mL
- Apparent t1/2 ([1]; individual animals): 0.990 h and 26.6^a h and 1.18 h
- Cmax ([1]; individual animals): 140 ng/mL and 137 ng/mL and 64.6 ng/mL
- F ([1]; individual animals): 132% and 144% and 124%
- MRT0-inf ([1]; individual animals): 1.07 h and 9.03 h and 1.40 h
- tmax ([1]; individual animals): 0.0833 h and 1.00 h
- AUC(0-inf) ([1]; male, Sprague Dawley, rat, plasma, sc, 0.992 mg/kg, Mean ± SD, read-out: AUC0-inf): 143 ± 10.8 ng·h/mL
- AUC(0-t) ([1]; male, Sprague Dawley, rat, plasma, sc, 0.992 mg/kg, Mean ± SD): 136 ± 3.91 ng·h/mL
- Cmax ([1]; male, Sprague Dawley, rat, plasma, sc, 0.992 mg/kg, Mean ± SD, read-out: Cmax): 114 ± 42.7 ng/mL
- MRT inf ([1]; male, Sprague Dawley, rat, plasma, sc, 0.992 mg/kg, Mean ± SD, read-out: MRT0-inf): 3.83 ± 4.5 h
- tmax ([1]; male, Sprague Dawley, rat, plasma, sc, 0.992 mg/kg, Mean ± SD, read-out: tmax): 0.25 h
- AUC(0-inf) ([1]; male, Sprague Dawley, rat, plasma, sc, 0.992 mg/kg, individual animals, read-out: AUC0-inf): 141 ng·h/mL
- AUC(0-t) ([1]; male, Sprague Dawley, rat, plasma, sc, 0.992 mg/kg, individual animals): 140 ng·h/mL
- half-life ([1]; male, Sprague Dawley, rat, plasma, sc, 0.992 mg/kg, mean (n = 2), outlier excluded, read-out: Apparent t1/2 (converted)): 1.09 h
- EC50 [2]: 100 to 1000 nM
- IC50 (human 5-HT2A): < 500 nM
- half-life at 2 μM ([3]; male, mouse, microsomes): 1.16 h
- microsomal CLint at 2 μM ([3]; male, mouse, microsomes): 19.9 µL/min/mg
- Remaining Percentage (%) after 60 min Mouse ([3]; mouse liver microsomes, with NADPH, 2 μM): 55.00%
- Remaining Percentage (%) after 60 min Rat ([4]; rat liver microsomes, with NADPH, 2 μM): 32.40%
- half-life at 2 μM ([4]; rat, microsomes): 0.615 h
- microsomal CLint at 2 μM ([4]; rat, microsomes): 37.6 µL/min/mg
